Article PMC12040169 (PLOS Biology, 2025)

Experiment: in vitro
Conditions: human, hela cells, % viability

Row | SMILES | viability at 28.5 h, 10 µM [%]
1 | COc1cccc2c(=O)n(CCCn3nc(C)nc3C)cnc12 [CBK307295] | 97
2 | Cc1ccc2oc(C(=O)N3CCC(Oc4cccnc4)CC3)cc2c1 [CBK281498] | 106
3 | CCSc1nnc(-c2cccc(C)c2)n1CC1CCCO1 (stereo not drawn) [CBK085413] | 93.1
4 | O=C(C1=C(O)C(=O)N(Cc2ccncc2)C1c1cccc(OCc2ccccc2)c1)c1cccs1 (stereo not drawn) [CBK266247] | 102
5 | CCOC(=O)N1CCC(Nc2nc3ccccc3nc2OCc2cc(C)on2)CC1 [CBK171825] | 89.2
6 | CC1CCN(CN2C(=O)C(=O)c3ccccc32)CC1 [CBK261304] | 91.7
7 | Cc1cc(NC(=O)c2cc(Br)cnc2NCc2cccnc2)n(C)n1 [CBK076358] | 90.7
8 | Nc1cc(-c2ccco2)nn(Cc2c(Cl)cccc2Cl)c1=O [CBK282880] | 112
9 | c1ccc(CSc2nnc(-c3ccco3)o2)cc1 [CBK026283] | 106
10 | Cc1ccc(S(=O)(=O)Nc2cccc3ccccc23)c([N+](=O)[O-])c1 [CBK267381] | 71.9
11 | COc1ccc(N2CC(C(=O)Nc3ccc(C(=O)O)cc3)CC2=O)cc1 (stereo not drawn) [CBK268782] | 88
12 | CCCN(Cc1ccoc1)CC1CC1 [CBK018931] | 94.6
13 | Cc1nc(S(=O)(=O)CC2CCCO2)n(CC(C)C)c1C (stereo not drawn) [CBK304882] | 116
14 | Cc1nn(C)c(Cl)c1S(=O)(=O)NCc1ccc(C(F)(F)F)c(F)c1 [CBK062111] | 93.8
15 | COCCc1noc(CC2CCN(c3ccc(C#N)nc3)CC2)n1 [CBK304094] | 89.9
16 | CCOC(=O)C(CNS(=O)(=O)c1ccc(F)cc1C)Cc1ccccc1 (stereo not drawn) [CBK305427] | 92.3
17 | COc1ccc([C@@]23CC[C@@H](C(=O)Nc4ccc(C(F)(F)F)cn4)C[C@@H]2N(C)CC3)cc1OC [CBK046310T] | 87.3
18 | Cc1ccc(CNc2cc(C)ccn2)cc1 [CBK005419] | 106
19 | O=[N+]([O-])c1ccc(Cc2cc[n+](-c3nc4ccccc4nc3[N-]S(=O)(=O)c3ccc([N+](=O)[O-])cc3)cc2)cc1 [CBK301201] | 84.3
20 | COc1ccc(NC(=O)c2cnccn2)c(OC)c1 [CBK262240] | 105
21 | CCN(CC)C(=O)c1ccccc1NS(=O)(=O)c1cc(Br)c(Cl)s1 [CBK045424] | 91.3
22 | CCOC(=O)c1csc(C2CCCN2C(=O)c2ccoc2C)n1 (stereo not drawn) [CBK304080] | 109

Row | SMILES | viability at 28.5 h, 10 µM [%]
23 | CCn1c(=O)n(CC(=O)NCc2ccccc2F)c2cccnc21 [CBK283890] | 86.8
24 | COc1cccc(-n2c(=O)[nH]c3c(C(N)=O)nc(-c4ccccc4)nc32)c1 [CBK287740] | 121
25 | Cc1cc(Cl)ccc1Nc1nnc(C)c(=O)[nH]1 [CBK287922] | 110
26 | Cc1nc(C)c(C(=O)NCC2CCCOC2)s1 (stereo not drawn) [CBK282194] | 97.2
27 | COC1C(O)C(CO)OC1n1cnc2cnc(N)nc21 (stereo not drawn) [CBK201290] | 84.9
28 | O=C(CN1C(=O)N2CCCN=C2c2ccccc21)NCc1ccccc1 [CBK284403] | 84.8
29 | NC(=O)c1cccc(Cn2c3c(c4cccc(C(=O)O)c42)CCCCC3)c1 [CBK024834] | 98.6
30 | O=C(C[C@@H]1O[C@H](CNS(=O)(=O)c2ccccc2)[C@@H](O)[C@H]1O)N1CCCC1 [CBK288909] | 108
31 | NC(=O)c1cccc(-c2nccnc2NCCO)c1 [CBK088993] | 97
32 | CC1CCc2c(sc3ncnc(SCC(=O)N(C)C)c23)C1 (stereo not drawn) [CBK305946] | 92.9
33 | CC(C)COC(=O)n1ccc(C(=O)N2CCCCC2)n1 [CBK058828] | 84.9
34 | CC(=O)Nc1cc(Cl)ccc1OS(=O)(=O)c1ccc(Cl)cc1 [CBK264992] | 90.3
35 | Cc1cnc(CNC(=O)c2ccc(-c3ccoc3)nc2)cn1 [CBK156267] | 109
36 | CN1CCN(Cc2c(C(C)(C)C)[nH]c3ncccc23)CC1 [CBK285334] | 104
37 | Cc1ccc(C(=O)N/C(=C\c2ccc3c(c2)OCO3)C(=O)NCC(=O)O)cc1 [CBK265669] | 109
38 | CCC(CO)Nc1nccnc1-c1ccoc1 (stereo not drawn) [CBK088756] | 100
39 | COc1cccc([C@H]2CN(C(=O)c3ccccc3)[C@@H]3CCN(Cc4ccccc4F)C[C@H]23)c1 [CBK285608] | 97.6
40 | Cc1nc2ccc(C(=O)NCCN3CCc4ccccc43)cc2[nH]1 [CBK283280] | 94.2
41 | CCOc1cc(/C=C2\N=C(c3ccc(OC)cc3)OC2=O)cc(Br)c1OCC(=O)OC [CBK102552] | 96.3
42 | CC(=O)N1CCc2sccc2C1c1ccc(NCc2ccc(F)cc2)cc1 (stereo not drawn) [CBK286442] | 90.3
43 | COc1ccc(Cc2nc(C3CC3)n(CC(F)(F)F)n2)cc1 [CBK307686] | 94.9
44 | Cc1cccn2cc(CC(=O)OCC(=O)NC(C)(C)C)nc12 [CBK304966] | 110

Row | SMILES | viability at 28.5 h, 10 µM [%]
45 | NC(=O)CSc1ccccc1 [CBK010649] | 91.2
46 | NC(=O)c1ccnc(Cl)c1 [CBK089827] | 96
47 | CCn1c(C)c(/C=C/c2nc3ccccc3c(=O)n2CCCO)c2ccccc21 [CBK268099] | 95.7
48 | CC(C)(C)NCC(O)COc1cccc2c3c(oc12)CCCC3 (stereo not drawn) [CBK008871C] | 90.2
49 | CS(=O)(=O)c1ccc(Cn2c(=O)[nH]c3ncc(-c4cccc(/C=C/C(=O)O)c4)nc32)cc1 [CBK065059] | 97.7
50 | CC(C)c1cc2c(s1)NC(c1ccccc1)NC2=O (stereo not drawn) [CBK288209] | 92.9
51 | CC(=O)c1cc(C)c(C)cc1N [CBK016322] | 127
52 | O=C(NCC(O)c1ccccc1)c1ccc(Cl)c(S(=O)(=O)N2CCCCC2)c1 (stereo not drawn) [CBK269197] | 81
53 | O=C(O)CCC(=O)Nc1cccc(C(=O)Nc2ccc(Br)cc2)c1 [CBK269129] | 94.6
54 | O=C(CCc1ccco1)N1CCCC1c1nc2ccccc2[nH]1 (stereo not drawn) [CBK283767] | 104
55 | COc1ccc(CN2CCN(CCCc3ccccc3)CC2)c(OC)c1 [CBK263378] | 95.1
56 | Cc1ccc(-c2csc(NC(=O)c3cccnc3)n2)cc1 [CBK072677] | 96.9
57 | Cc1ccc(Cl)c(OC(C)C(=O)NCC2(N3CCOCC3)CCSC2)c1 (stereo not drawn) [CBK305681] | 110
58 | CN(C)CCCn1cccc1C=O [CBK261993G] | 90.3
59 | CCCN1CCC(NCC(C)(C)CN(C)C)CC1 [CBK261934] | 89.3
60 | O=C(Nc1cnc(-c2cccc(C(F)(F)F)c2)c(-c2cccnc2)n1)c1cc(-c2ccco2)n[nH]1 [CBK036878] | 104
61 | O=C(NC(=S)CC1C=NCS1)c1ccccc1 (stereo not drawn) [CBK020794] | 107
62 | Cc1nc(S(=O)(=O)Nc2nc(C(C)C)ns2)cn1C [CBK051323] | 107
63 | CSc1nc(N/N=C/c2ccc(Cl)cc2)c2c3c(sc2n1)CN(C)CC3 [CBK262588] | 107
64 | CCCCC(=O)Nc1ccc(C(=O)N2CCN(C)CC2)cc1 [CBK304662] | 105
65 | Cc1noc(C)c1S(=O)(=O)Nc1cc(C(F)(F)F)ccc1N1CCOCC1 [CBK062545] | 90.4
66 | CCc1cc(NCCc2ccc(=O)[nH]c2)nc(-c2ccc(Br)cc2)n1 [CBK144610C] | 93.3
